Measured values from patent publication US9181233B2, “Inhibitors of glutaminyl cyclase” (PROBIODRUG AG, priority 2010, dated 2015).

Target: hQC (Homo sapiens (Human), UniProt Q16769)
Assay: QC inhibitor assay (hQC inhibition, IC50 and Ki determination)
Assay type: biochemical
Settings: for Ki: competitive inhibition fit
Procedure: All measurements were performed with a BioAssay Reader HTS-7000Plus for microplates (Perkin Elmer) at 30° C. QC activity was evaluated fluorometrically using H-Gln-βNA. The samples consisted of 0.2 mM fluorogenic substrate, 0.25 U pyroglutamyl aminopeptidase (Unizyme, Hørsholm, Denmark) in 0.2 M Tris/HCl, pH 8.0 containing 20 mM EDTA and an appropriately diluted aliquot of QC in a final volume of 250 μl. Excitation/emission wavelengths were 320/410 nm. The assay reactions were initiated by addition of glutaminyl cyclase. QC activity was determined from a standard curve of β-naphthylamine under assay conditions. One unit is defined as the amount of QC catalyzing the formation of 1 μmol pGlu-βNA from H-Gln-βNA per minute under the described conditions.
In a second fluorometric assay, QC was activity determined using H-Gln-AMC as substrate. Reactions were carried out at 30° C. utilizing the NOVOStar reader for microplates (BMG labtechnologies). The samples consisted of varying concentrations of the fluorogenic substrate, 0.1 U pyroglutamyl aminopeptidase (Qiagen) in 0.05 M Tris/HCl, pH 8.0 containing 5 mM EDTA and an appropriately diluted aliquot of QC in a final volume of 250 μl. Excitation/emission wavelengths were 380/460 nm. The assay reactions were initiated by addition of glutaminyl cyclase. QC activity was determined from a standard curve of 7-amino-4-methylcoumarin under assay conditions. The kinetic data were evaluated using GraFit software.
This novel assay was used to determine the kinetic parameters for most of the QC substrates. […] Samples consisted of the respective QC substrate, 0.3 mM NADH, 14 mM α-Ketoglutaric acid and 30 U/ml glutamate dehydrogenase in a final volume of 250 μl. Reactions were started by addition of QC and perused by monitoring of the decrease in absorbance at 340 nm for 8-15 min.
The initial velocities were evaluated and the enzymatic activity was determined from a standard curve of ammonia under assay conditions. All samples were measured at 30° C., using either the […]luor Plus or the Sunrise (both from TECAN) reader for microplates. Kinetic data was evaluated using GraFit software.
For inhibitor testing, the sample composition was the same as described above, except of the putative inhibitory compound added. For a rapid test of QC-inhibition, samples contained 4 mM of the respective inhibitor and a substrate concentration at 1 KM. For detailed investigations of the inhibition and determination of Ki-values, influence of the inhibitor on the auxiliary enzymes was investigated first. […] The inhibitory constant was evaluated by fitting the set of progress curves to the general equation for competitive inhibition using GraFit software.

Sequence of hQC (Q16769 29-361): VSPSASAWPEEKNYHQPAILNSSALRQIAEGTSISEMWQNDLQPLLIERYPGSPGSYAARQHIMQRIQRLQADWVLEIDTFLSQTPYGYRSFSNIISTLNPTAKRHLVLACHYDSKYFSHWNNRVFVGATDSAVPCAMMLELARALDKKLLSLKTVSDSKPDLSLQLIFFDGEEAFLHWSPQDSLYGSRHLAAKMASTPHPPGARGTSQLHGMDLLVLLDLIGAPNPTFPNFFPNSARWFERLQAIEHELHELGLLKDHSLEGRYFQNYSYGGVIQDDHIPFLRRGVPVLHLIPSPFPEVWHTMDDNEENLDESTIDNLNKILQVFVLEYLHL

Row | IC50 | Ki | Structure (SMILES)
1 | 0.48 µM | 0.08 µM | c1ccc(Oc2ccc(Cn3cnnc3-c3ccc4[nH]cnc4c3)cc2)cc1 [Example 10, 5-(4-(4-phenoxybenzyl)-4H-1,2,4-triazol-3-yl)-1H-benzo[d]imidazole]
2 | 0.76 µM | 0.08 µM | CSc1ccc(CCc2nnc(-c3ccc4[nH]cnc4c3)s2)cc1 [Example 50, 5-(5-(4-(Methylthio)phenethyl)-1,3,4-thiadiazol-2-yl)-1H-benzo[d]imidazole]
3 | 0.8 µM | 0.13 µM | COc1ccc(CCc2nnc(-c3ccc4[nH]cnc4c3)o2)cc1Cl [Example 39, 5-(5-(3-Chloro-4-methoxyphenethyl)-1,3,4-oxadiazol-2-yl)-1H-benzo[d]imidazole]
4 | 0.68 µM | 0.05 µM | COc1ccc(CCc2nnc(-c3ccc4[nH]cnc4c3)s2)cc1Cl [Example 52, 5-(5-(3-Chloro-4-methoxyphenethyl)-1,3,4-thiadiazol-2-yl)-1H-benzo[d]imidazole]
5 | 0.53 µM | 0.12 µM | c1ccc(SCc2nnc(-c3ccc4[nH]cnc4c3)s2)cc1 [Example 65, 5-(5-((Phenylthio)methyl)-1,3,4-thiadiazol-2-yl)-1H-benzo[d]imidazole]
6 | 0.76 µM | 0.17 µM | COc1ccccc1CCc1nnc(-c2ccc3[nH]cnc3c2)s1 [Example 61, 5-(5-(2-Methoxyphenethyl)-1,3,4-thiadiazol-2-yl)-1H-benzo[d]imidazole]
7 | 0.22 µM | 0.1 µM | COc1cccc(CCc2nnc(-c3ccc4[nH]cnc4c3)s2)c1Cl [Example 63, 5-(5-(2-Chloro-3-methoxyphenethyl)-1,3,4-thiadiazol-2-yl)-1H-benzo[d]imidazole]
8 | 0.85 µM | 0.23 µM | COc1ccc(Cn2cnnc2-c2ccc3[nH]cnc3c2)cc1Cl [Example 24, 5-(4-(3-Chloro-4-methoxybenzyl)-4H-1,2,4-triazol-3-yl)-1H-benzo[d]imidazole]
9 | 0.48 µM | 0.08 µM | COc1ccc(OC)c(CCc2nnc(-c3ccc4[nH]cnc4c3)s2)c1 [Example 62, 5-(5-(2,5-Dimethoxyphenethyl)-1,3,4-thiadiazol-2-yl)-1H-benzo[d]imidazole]
10 | 0.49 µM | 0.08 µM | COc1cc(CCc2nnc(-c3ccc4[nH]cnc4c3)s2)cc(OC)c1OC [Example 55, 5-(5-(3,4,5-Trimethoxyphenethyl)-1,3,4-thiadiazol-2-yl)-1H-benzo[d]imidazole]

The remaining lines, values behind:

Row | Structure (SMILES) | IC50 | Ki
11 | Clc1cccc(Cn2cnnc2-c2ccc3[nH]cnc3c2)c1Cl [Example 22, 5-(4-(2,3-Dichlorobenzyl)-4H-1,2,4-triazol-3-yl)-1H-benzo[d]imidazole] | 0.52 µM | 0.12 µM
12 | Fc1ccc(CCc2nnc(-c3ccc4[nH]cnc4c3)s2)cc1F [Example 58, 5-(5-(3,4-Difluorophenethyl)-1,3,4-thiadiazol-2-yl)-1H-benzo[d]imidazole] | 0.72 µM | 0.14 µM
13 | Fc1cccc(CCc2nnc(-c3ccc4[nH]cnc4c3)s2)c1 [Example 59, 5-(5-(3-fluorophenethyl)-1,3,4-thiadiazol-2-yl)-1H-benzo[d]imidazole] | 0.56 µM | 0.12 µM
14 | COc1ccc(Cn2cnnc2-c2ccc3[nH]cnc3c2)cc1 [Example 8, 5-(4-(4-Methoxybenzyl)-4H-1,2,4-triazol-3-yl)-1H-benzo[d]imidazole] | 0.64 µM | 0.11 µM
15 | c1ccc(SCn2cc(-c3ccc4[nH]cnc4c3)nn2)cc1 [Example 84, 5-(1-((Phenylthio)methyl)-1H-1,2,3-triazol-4-yl)-1H-benzo[d]imidazole] | 0.57 µM | 0.12 µM
16 | COc1cccc(CCc2nnc(-c3ccc4[nH]cnc4c3)s2)c1 [Example 60, 5-(5-(3-Methoxyphenethyl)-1,3,4-thiadiazol-2-yl)-1H-benzo[d]imidazole] | 0.45 µM | 0.04 µM
17 | Clc1ccccc1Cn1cnnc1-c1ccc2[nH]cnc2c1 [Example 9, 5-(4-(2-Chlorobenzyl)-4H-1,2,4-triazol-3-yl)-1H-benzo[d]imidazole] | 0.76 µM | 0.2 µM
